Measurements as given in patent US8318749B2, “Quinazoline derivatives as NK3 receptor antagonists” (Hoffmann-La Roche Inc., priority 2008, dated 2012).

How the values were obtained:
[1] = target: T1, recombinant human NK3 receptor (Homo sapiens, UniProt P29371); experiment: [3H]SR142801 competition binding assay; settings: membrane from HEK293 cells transiently expressing recombinant human NK3 receptor; radioligand [3H]SR142801; 75 min at RT
T1 construct: expressed in transfected cells; host or cells: HEK293 cells (transient expression), membrane preparation
T1 sequence (P29371 1-465): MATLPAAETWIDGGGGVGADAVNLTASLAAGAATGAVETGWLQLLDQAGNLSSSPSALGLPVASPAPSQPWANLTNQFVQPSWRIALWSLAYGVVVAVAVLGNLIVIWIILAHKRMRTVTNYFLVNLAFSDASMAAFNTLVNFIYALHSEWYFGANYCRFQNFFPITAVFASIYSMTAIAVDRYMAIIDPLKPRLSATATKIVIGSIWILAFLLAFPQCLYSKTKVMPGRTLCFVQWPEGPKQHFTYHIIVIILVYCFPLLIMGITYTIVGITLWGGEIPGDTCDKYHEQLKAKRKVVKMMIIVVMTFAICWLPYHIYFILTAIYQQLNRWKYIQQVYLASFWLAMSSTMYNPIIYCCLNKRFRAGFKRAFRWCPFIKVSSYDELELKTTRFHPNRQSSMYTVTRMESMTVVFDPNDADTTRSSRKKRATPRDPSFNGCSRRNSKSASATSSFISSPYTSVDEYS
Method: [^3H]SR142801 Competition Binding Assay
hNK3 receptor binding experiment were performed using [^3H]SR142801 (Catalog No. TRK1035, specific activity: 74.0 Ci/mmol, Amersham, GE Healthcare UK limited, Buckinghamshire, UK) and membrane isolated from HEK293 cells transiently expressing recombinant human NK3 receptor. After thawing, the membrane homogenates were centrifuged at 48,000×g for 10 min at 4° C., the pellets were resuspended in the 50 mM Tris-HCl, 4 mM MnCl2, 1 μM phosphoramidon, 0.1% BSA binding buffer at pH 7.4 to a final assay concentration of 5 μg protein/well. […] At the end of the incubation, membranes were filtered onto unitfilter (96-well white microplate with bonded GF/C filter preincubated 1 h in 0.3% PEI+0.3% BSA, Packard BioScience, Meriden, Conn.) with a Filtermate 196 harvester (Packard BioScience) and washed 4 times with ice-cold 50 mM Tris-HCl, pH 7.4 buffer. Nonspecific binding was measured in the presence of 10 μM SB222200 for both radioligands. The radioactivity on the filter was counted (5 min) on a Packard Top-count microplate scintillation counter with quenching correction after addition of 45 μl of microscint 40 (Canberra Packard S.A., Zürich, Switzerland) and shaking for 1 h. Inhibition curves were fitted according to the Hill equation: y=100/(1+(x/IC50)^nH), where nH=slope factor using Excel-fit 4 software (Microsoft). IC50 values were derived from the inhibition curve and the affinity constant (Ki) values were calculated using the Cheng-Prussoff equation Ki=IC50/(1+[L]/KD) where [L] is the concentration of radioligand and KD is its dissociation constant at the receptor, derived from the saturation isotherm. All experiments were performed in duplicate and the mean±standard error (SEM) of the individual Ki values was calculated.

[2] = phase II trial, cited from earlier work

Ki [1] [nM] | SMILES | further results
8.3 | CCOc1cc2nc(N3CCC(Cc4ccccc4)(C(=O)NCc4ccccc4)CC3)nc(O)c2cc1OC(F)F [Example 94, 4-Benzyl-1-(6-difluoromethoxy-7-ethoxy-4-hydroxy-quinazolin-2-yl)-piperidine-4-carboxylic acid benzylamide] | –
46.7 | COc1cc2nc(N3CCC(Cc4ccccc4)(C(=O)N4CCCC4c4ccccc4)CC3)nc(N)c2cc1OC (stereo not shown) [Example 47, [1-(4-Amino-6,7-dimethoxy-quinazolin-2-yl)-4-benzyl-piperidin-4-yl]-(2-phenyl-pyrrolidin-1-yl)-methanone] | –
7.6 | COc1cc2nc(N3CCC(CC4CCC4)(C(=O)N(C)Cc4ccccc4)CC3)nc(O)c2cc1OC [Example 80, 4-Cyclobutylmethyl-1-(4-hydroxy-6,7-dimethoxy-quinazolin-2-yl)-piperidine-4-carboxylic acid benzyl-methyl-amide] | –
97.5 | CC(C)Oc1ccc2nc(N3CCC(Cc4ccccc4)(C(=O)NCc4ccccc4)CC3)nc(O)c2c1 [Example 83, 4-Benzyl-1-(4-hydroxy-6-isopropoxy-quinazolin-2-yl)-piperidine-4-carboxylic acid benzylamide] | –
11.5 | O=C(NCc1ccccc1)C1(Cc2ccccc2)CCN(c2nc(O)c3ccc(OC(F)F)cc3n2)CC1 [Example 89, 4-Benzyl-1-(7-difluoromethoxy-4-hydroxy-quinazolin-2-yl)-piperidine-4-carboxylic acid benzylamide] | –
39.1 | COc1cc2nc(N3CCC(Cc4ccccc4)(C(=O)Nc4cnn(C)c4)CC3)nc(O)c2cc1OC [Example 59, 4-Benzyl-1-(4-hydroxy-6,7-dimethoxy-quinazolin-2-yl)-piperidine-4-carboxylic acid (1-methyl-1H-pyrazol-4-yl)-amide] | –
– | CC(=O)N(C)C1(c2ccccc2)CCN(CCC[C@]2(c3ccc(Cl)c(Cl)c3)CCCN(C(=O)c3ccccc3)C2)CC1 [SR 142,801, Osanetant] | activity on positive symptoms of schizophrenia ([2]; altered behaviour, delusion, hallucinations, extreme emotions, excited motor activity, incoherent speech): active; activity in the treatment of negative symptoms ([2]; depression, anhedonia, social isolation or memory and attention deficits): inactive
47.8 | COc1cc2nc(N3CCC(CC4CC4)(C(=O)N(C)Cc4ccccc4)CC3)nc(O)c2cc1OC [Example 75, 4-Cylcopropylmethyl-1-(4-hydroxy-6,7-dimethoxy-quinazolin-2-yl)-piperidine-4-carobxylic acid benzyl-methyl-amide] | –
9.3 | COc1cc2nc(N3CCC(Cc4ccccc4)(C(=O)NCc4ccccc4)CC3)nc(O)c2cc1F [Example 88, 4-Benzyl-1-(6-fluoro-4-hydroxy-7-methoxy-quinazolin-2-yl)-piperidine-4-carboxylic acid benzylamide] | –
3.6 | COc1cc2nc(N3CCC(Cc4ccccc4)(C(=O)NCc4ccccc4)CC3)nc(O)c2cc1OC [Example 17, 4-Benzyl-1-(4-hydroxy-6,7-dimethoxy-quinazolin-2-yl)-piperdine-4-carboxylic acid benzylamide] | –
43.8 | COc1cc2nc(N3CCC(Cc4ccccc4)(C(=O)NCc4ccco4)CC3)nc(N)c2cc1OC [Example 46, 1-(4-Amino-6,7-dimethoxy-quinazolin-2-yl)-4-benzyl-piperidine-4-carboxylic acid (furan-2-ylmethyl)-amide] | –
15.8 | COc1cc2nc(N3CCC(Cc4ccccc4)(C(=O)NCc4ccccc4)CC3)nc(O)c2cc1C#N [Example 97, 4-Benzyl-1-(6-cyano-4-hydroxy-7-methoxy-quinazolin-2-yl)-piperidine-4-carboxylic acid benzylamide] | –
36.2 | COc1cc2nc(N3CCC(CC4CCC4)(C(=O)NC4CCc5ccccc5C4)CC3)nc(O)c2cc1OC (stereo not shown) [Example 77, 4-Cylcobutylmethyl-1-(4-hydroxy-6,7-dimethoxy-quinazolin-2-yl)-piperidine-4-carboxylic acid (1,2,3,4-tetrahydro-naphthalen-2-yl)-amide] | –
66.1 | COc1cc2nc(N3CCC(Cc4ccccc4)(C(=O)NCc4cccnc4)CC3)nc(O)c2cc1OC [Example 2, 4-Benzyl-1-(4-hydroxy-6,7-dimethoxy-quinazolin-2-yl)-piperidine-4-carboxylic acid (pyridin-3-ylmethyl)-amide] | –
5.4 | COc1cc2nc(N3CCC(Cc4ccccc4)(C(=O)NC4CCc5ccccc54)CC3)nc(N)c2cc1OC (stereo not shown) [Example 44, 1-(4-Amino-6,7-dimethoxy-quinazolin-2-yl)-4-benzyl-piperidine-4-carboxylic acid indan-1-ylamide] | –
73.2 | COc1cc2nc(N3CCC(Cc4ccccc4)(C(=O)NCc4ccccc4)CC3)nc(N(C)C)c2cc1OC [Example 14, 4-Benzyl-1-(4-dimethylamino-6,7-dimethoxy-quinazolin-2-yl)-piperidine-4-carboxylic acid benzylamide] | –
37.3 | COc1cc2nc(N3CCC(Cc4ccc(F)cc4)(C(=O)NCc4ccccc4)CC3)nc(N)c2cc1OC [Example 4, 1-(4-Amino-6,7-dimethoxy-quinazolin-2-yl)-4-(4-fluoro-benzyl)-piperidine-4-carboxylic acid benzylamide] | –
3.6 | COc1cc2nc(N3CCC(Cc4ccccc4)(C(=O)N[C@H]4c5ccccc5C[C@@H]4O)CC3)nc(N)c2cc1OC [Example 39, 1-(4-Amino-6,7-dimethoxy-quinazolin-2-yl)-4-benzyl-piperidine-4-carboxylic acid ((1S,2S)-2-hydroxy-indan-1-yl)-amide] | –
11.2 | CC(C)Oc1ccc2c(O)nc(N3CCC(Cc4ccccc4)(C(=O)NCc4ccccc4)CC3)nc2c1 [Example 96, 4-Benzyl-1-(4-hydroxy-7-isopropoxy-quinazolin-2-yl)-piperidine-4-carboxylic acid benzylamide] | –
46.6 | COc1cc2nc(N3CCC(Cc4ccccc4)(C(=O)NC4CCCc5ccccc54)CC3)nc(N)c2cc1OC (stereo not shown) [Example 23, 1-(4-Amino-6,7-dimethoxy-quinazolin-2-yl)-4-benzyl-piperidine-4-carboxylic acid (1,2,3,4-tetrahydro-naphthalen-1-yl)-amide] | –
13.3 | COc1cc2nc(N3CCC(Cc4ccccc4)(C(=O)NCc4ccccc4)CC3)nc(O)c2cc1C [Example 90, 4-Benzyl-1-(4-hydroxy-7-methoxy-6-methyl-quinazolin-2-yl)-piperidine-4-carboxylic acid benzylamide] | –
18.3 | COc1cc2nc(N3CCC(Cc4ccccc4)(C(=O)NCc4ccccc4)CC3)nc(N)c2cc1OC [Example 10, l-(4-Amino-6,7-dimethoxy-quinazolin-2-yl)-4-benzyl-piperidine-4-carboxylic acid benzylamide] | –
6.1 | O=C(NCc1ccccc1)C1(Cc2ccccc2)CCN(c2nc(O)c3ccc(C(F)(F)F)cc3n2)CC1 [Example 98, 4-Benzyl-1-(4-hydroxy-7-trifluoromethyl-quinazolin-2-yl)-piperidine-4-carboxylic acid benzylamide] | –
48.7 | COc1cc2nc(N3CCC(Cc4ccccc4)(C(=O)NC(CO)c4ccccc4)CC3)nc(N)c2cc1OC (stereo not shown) [Example 41, 1-(4-Amino-6,7-dimethoxy-quinazolin-2-yl)-4-benzyl-piperidine-4-carboxylic acid (2-hydroxy-1-phenyl-ethyl)-amide] | –
5.8 | COc1cc2nc(N3CCC(CC4CCC4)(C(=O)NCc4ccccc4)CC3)nc(O)c2cc1OC [Example 76, 4-Cyclobutylmethyl-1-(4-hydroxy-6,7-dimethoxy-quinazolin-2-yl)-piperidine-4-carboxylic acid benzylamide] | –
11.1 | COc1cc2nc(N3CCC(Cc4ccccc4)(C(=O)NC4Cc5ccccc5C4)CC3)nc(O)c2cc1OC [Example 55, 4-Benzyl-1-(4-hydroxy-6,7-dimethoxy-quinazolin-2-yl)-piperidine-4-carboxylic acid indan-2-ylamide] | –
27.8 | COc1cc2nc(N3CCC(Cc4ccccc4)(C(=O)NC4Cc5ccccc5C4)CC3)nc(N)c2cc1OC [Example 19, 1-(4-Amino-6,7-dimethoxy-quinazolin-2-yl)-4-benzyl-piperidine-4-carboxylic acid indan-2-ylamie] | –
